Laboratory results: US12194039B2, “Methods of treating heart failure by administering omecamtiv mecarbil” (Cytokinetics, Inc., priority 2020, dated 2025)
Like-named read-outs stand apart in the source and are kept apart here.

Tested on: patients with HFrEF by ejection fraction quartile
Assay type: in vivo, human
Design: Change from baseline in KCCQ Total Symptom Score, least square mean / KCCQ Total Symptom Score Inpatient, Treatment Difference, least squares mean / KCCQ Total Symptom Score Outpatient, Treatment Difference, least squares mean / KCCQ Total Symptom Score, Treatment Difference, least squares mean: scale not given here
Details: for Troponin I (Ratio) / Troponin I, Treatment Difference (95% CI) / Creatinine, Treatment Difference / Heart rate, Treatment Difference / KCCQ Total Symptom Score, Treatment Difference, least squares mean / NT-proBNP (Ratio) / Potassium, Treatment Difference / Systolic BP, Treatment Difference / KCCQ Total Symptom Score Inpatient, Treatment Difference, least squares mean / KCCQ Total Symptom Score Outpatient, Treatment Difference, least squares mean: baseline to Week 24; for Change from baseline in KCCQ Total Symptom Score, least square mean: Week 24
Protocol: Continuous variables were summarized via means and standard deviations or medians and interquartile ranges, as appropriate. Categorical variables are summarized with counts and percentages. Tests of trend across categories were conducted via linear regression, Cuzick's non-parametric trend test, and Chi-squared tests of trend, respectively. Treatment effects on continuous outcomes were assessed via linear regression models adjusted for the corresponding baseline value of the parameter of interest. Survival analyses were conducted using Poisson regression models to estimate incidence rates, rate differences, and rate ratios and Cox proportional hazards models to estimate hazard ratios. […] To allow for potentially non-linear associations between ejection fraction and time-to-event outcomes, restricted cubic splines were utilized in the Poisson regression models with 3 knots. All analyses were conducted using STATA 16 (College Station, Tex.). P-values <0.05 were considered statistically significant. Due to the exploratory nature of these analyses, no adjustments were made for multiple comparisons.
Within each randomization setting subgroup least squares mean is from the mixed model which includes baseline total symptom score value, region, baseline eGFR, scheduled visit, treatment group and interaction of treatment with scheduled visit as covariates. Influence of Ejection Fraction on the Treatment Effect of Omecamtiv Mecarbil

SMILES: COC(=O)N1CCN(Cc2cccc(NC(=O)Nc3ccc(C)nc3)c2F)CC1 [omecamtiv mecarbil]
- Troponin I (Ratio) (EF 29-32%, vs placebo): 1.27
- Troponin I, Treatment Difference (95% CI) (EF 29-32%, vs placebo): 4 (3, 5) ng/L
- Adjudicated First Major Cardiac Ischemic Events, % (EF 33%, OM group): 6.5%
- Adjudicated First Stroke, % (EF 33%, OM group): 1.8%
- Adverse Event: Ventricular Tachyarrhythmia, % (EF 33%, OM group): 6.4%
- Any treatment Emergent Serious Adverse Events, % (EF 33%, OM group): (55.5%)
- Positively Adjudicated Myocardial Infarction, % (EF 33%, OM group): 3.8%
- Serious Adverse Event: Ventricular Arrhythmia Requiring Treatment, % (EF 33%, OM group): 2.5%
- Adjudicated First Major Cardiac Ischemic Events, Relative Risk (EF 33%, OM vs placebo): 0.99
- Adjudicated First Stroke, Relative Risk (EF 33%, OM vs placebo): 0.77
- Adverse Event: Ventricular Tachyarrhythmia, Relative Risk (EF 33%, OM vs placebo): 0.88
- Any treatment Emergent Serious Adverse Events, Relative Risk (EF 33%, OM vs placebo): 1.02
- Positively Adjudicated Myocardial Infarction, Relative Risk (EF 33%, OM vs placebo): 1.02
- Serious Adverse Event: Ventricular Arrhythmia Requiring Treatment, Relative Risk (EF 33%, OM vs placebo): 1.11
- 1st HF Hospitalization (%) (EF ≤22%, OM group): (30%)
- 1st HF Hospitalization Rate (EF ≤22%, OM group): 20.9 per 100 patient years
- 1st HF Hospitalization n/N (EF ≤22%, OM group): 340/1127
- First HF Event (%) (EF ≤22%, OM group): (31%)
- First HF Event Rate (EF ≤22%, OM group): 21.7 per 100 patient years
- First HF Event n/N (EF ≤22%, OM group): 351/1127
- Primary Outcome (%) (EF ≤22%, OM group): (41%)
- Primary Outcome Rate (EF ≤22%, OM group): 28.3 per 100 patient years
- Primary Outcome n/N (EF ≤22%, OM group): 457/1127
- Total HF Events, Events (EF ≤22%, OM group): 719
- Total HF Events, Rate (EF ≤22%, OM group): 37.1 per 100 pt-yrs
- Total HF Hospitalizations, Events (EF ≤22%, OM group): 679
- Total HF Hospitalizations, Rate (EF ≤22%, OM group): 35.1 per 100 pt-yrs
- 1st HF Hospitalization ARR (EF ≤22%, OM vs placebo): 6.1 per 100 patient years
- 1st HF Hospitalization HR (95% CI) (EF ≤22%, OM vs placebo): 0.82 (0.71, 0.94)
- First HF Event ARR (EF ≤22%, OM vs placebo): 6.6 per 100 patient years
- First HF Event HR (95% CI) (EF ≤22%, OM vs placebo): 0.81 (0.70, 0.93)
- Primary Outcome ARR (EF ≤22%, OM vs placebo): 7.4 per 100 patient years
- Primary Outcome HR (95% CI) (EF ≤22%, OM vs placebo): 0.83 (0.73, 0.95)
- Total HF Events, ARR (EF ≤22%, OM vs placebo): 11.3 per 100 pt-yrs
- Total HF Events, Ratio (95% CI) (EF ≤22%, OM vs placebo): 0.83 (0.70, 1.01)
- Total HF Hospitalizations, ARR (EF ≤22%, OM vs placebo): 9.9 per 100 pt-yrs
- Total HF Hospitalizations, Ratio (95% CI) (EF ≤22%, OM vs placebo): 0.84 (0.70, 1.01)
- Creatinine, Treatment Difference (EF ≤22%, vs placebo): -0.01 mg/dL
- Heart rate, Treatment Difference (EF ≤22%, vs placebo): −1.6 bpm
- KCCQ Total Symptom Score, Treatment Difference, least squares mean (EF ≤22%, vs placebo): +1.6
- NT-proBNP (Ratio) (EF ≤22%, vs placebo): 0.78
- Potassium, Treatment Difference (EF ≤22%, vs placebo): 0.01 mmol/L
- Systolic BP, Treatment Difference (EF ≤22%, vs placebo): 0.9 mmHg
- Troponin I (Ratio) (EF ≤22%, vs placebo): 1.19
- Troponin I, Treatment Difference (95% CI) (EF ≤22%, vs placebo): 5 (4, 6) ng/L
- 1st HF Hospitalization (%) (EF ≥33%, OM group): 26%
- 1st HF Hospitalization Rate (EF ≥33%, OM group): 15.5 per 100 patient years
- 1st HF Hospitalization n/N (EF ≥33%, OM group): 228/892
- All-cause Death (%) (EF ≥33%, OM group): 22%
- All-cause Death Rate (EF ≥33%, OM group): 11.8 per 100 patient years
- All-cause Death n/N (EF ≥33%, OM group): 200/892
- First HF Event (%) (EF ≥33%, OM group): 26%
- First HF Event Rate (EF ≥33%, OM group): 16.2 per 100 patient years
- First HF Event n/N (EF ≥33%, OM group): 236/892
- Primary Outcome (%) (EF ≥33%, OM group): 33%
- Primary Outcome Rate (EF ≥33%, OM group): 20.5 per 100 patient years
- Primary Outcome n/N (EF ≥33%, OM group): 298/892
- Total HF Events, Events (EF ≥33%, OM group): 483
- Total HF Events, Rate (EF ≥33%, OM group): 28.5 per 100 pt-yrs
- Total HF Hospitalizations, Events (EF ≥33%, OM group): 449
- Total HF Hospitalizations, Rate (EF ≥33%, OM group): 26.5 per 100 pt-yrs
- 1st HF Hospitalization ARR (EF ≥33%, OM vs placebo): −1.2 per 100 patient years
- 1st HF Hospitalization HR (95% CI) (EF ≥33%, OM vs placebo): 1.03 (0.85, 1.24)
- All-cause Death ARR (EF ≥33%, OM vs placebo): −0.1 per 100 patient years
- All-cause Death HR (95% CI) (EF ≥33%, OM vs placebo): 0.98 (0.80, 1.20)
- First HF Event ARR (EF ≥33%, OM vs placebo): −1.3 per 100 patient years
- First HF Event HR (95% CI) (EF ≥33%, OM vs placebo): 1.04 (0.86, 1.25)
- Primary Outcome ARR (EF ≥33%, OM vs placebo): −0.4 per 100 patient years
- Primary Outcome HR (95% CI) (EF ≥33%, OM vs placebo): 0.99 (0.84, 1.16)
- Total HF Events, ARR (EF ≥33%, OM vs placebo): −4.7 per 100 pt-yrs
- Total HF Events, Ratio (95% CI) (EF ≥33%, OM vs placebo): 1.13 (0.90, 1.43)
- Total HF Hospitalizations, ARR (EF ≥33%, OM vs placebo): −3.6 per 100 pt-yrs
- Total HF Hospitalizations, Ratio (95% CI) (EF ≥33%, OM vs placebo): 1.12 (0.89, 1.43)
- Creatinine, Treatment Difference (EF ≥33%, vs placebo): 0.02 mg/dL
- Heart rate, Treatment Difference (EF ≥33%, vs placebo): −1.1 bpm
- KCCQ Total Symptom Score, Treatment Difference, least squares mean (EF ≥33%, vs placebo): −1.0
- NT-proBNP (Ratio) (EF ≥33%, vs placebo): 0.97
- Potassium, Treatment Difference (EF ≥33%, vs placebo): 0.02 mmol/L
- Systolic BP, Treatment Difference (EF ≥33%, vs placebo): −1.2 mmHg
- Troponin I (Ratio) (EF ≥33%, vs placebo): 1.27
- Troponin I, Treatment Difference (95% CI) (EF ≥33%, vs placebo): 3 (2, 4) ng/L
- Change from baseline in KCCQ Total Symptom Score, least square mean (Inpatient, EF 23-28%): 21.51
- KCCQ Total Symptom Score Inpatient, Treatment Difference, least squares mean (Inpatient, EF 23-28%, vs placebo): +0.2
- Change from baseline in KCCQ Total Symptom Score, least square mean (Inpatient, EF 29-32%): 22.34
- KCCQ Total Symptom Score Inpatient, Treatment Difference, least squares mean (Inpatient, EF 29-32%, vs placebo): +4.8
- Change from baseline in KCCQ Total Symptom Score, least square mean (Inpatient, EF ≤22%): 27.70
- KCCQ Total Symptom Score Inpatient, Treatment Difference, least squares mean (Inpatient, EF ≤22%, vs placebo): +4.9
- Change from baseline in KCCQ Total Symptom Score, least square mean (Inpatient, EF ≥33%): 22.09
- KCCQ Total Symptom Score Inpatient, Treatment Difference, least squares mean (Inpatient, EF ≥33%, vs placebo): −0.0
- Change from baseline in KCCQ Total Symptom Score, least square mean (Outpatient, EF 23-28%): 5.61
- KCCQ Total Symptom Score Outpatient, Treatment Difference, least squares mean (Outpatient, EF 23-28%, vs placebo): −0.6
- Change from baseline in KCCQ Total Symptom Score, least square mean (Outpatient, EF 29-32%): 5.30
- KCCQ Total Symptom Score Outpatient, Treatment Difference, least squares mean (Outpatient, EF 29-32%, vs placebo): −0.8
- Change from baseline in KCCQ Total Symptom Score, least square mean (Outpatient, EF ≤22%): 7.08
- KCCQ Total Symptom Score Outpatient, Treatment Difference, least squares mean (Outpatient, EF ≤22%, vs placebo): +0.7
- Change from baseline in KCCQ Total Symptom Score, least square mean (Outpatient, EF ≥33%): 5.18
- KCCQ Total Symptom Score Outpatient, Treatment Difference, least squares mean (Outpatient, EF ≥33%, vs placebo): −1.5
- Increase in troponin I, median (across the EF quartiles, limit of detection 6 ng/L, upper reference limit 40 ng/L): 3 to 5 ng/L
- Incidence of adverse events, omecamtiv mecarbil vs placebo (by EF quartile, result in words): no significant differences
- Effect on symptoms as assessed by the KCCQ-TSS as a function of EF (inpatient or outpatient settings, result in words): no consistent beneficial effect
- Absolute risk reduction, primary composite endpoint (lowest ejection fraction quartile): 7.4 events per 100 patient-years
- Relative risk reduction, primary composite endpoint (lowest ejection fraction quartile (EF ≤22%)): 17%
- Number-needed-to-treat to prevent an event (over 3 years, lowest ejection fraction quartile): 11.8
- Effect on cardiovascular death (overall population and as a function of baseline ejection fraction, result in words): no overall effect
- Primary endpoint, hazard ratio (patients with EF ≤28%, vs placebo): 0.84
- Primary endpoint, hazard ratio (patients with EF>28%, vs placebo): 1.04
- Reduction in time-to-first heart failure event or cardiovascular death (primary endpoint) (patients with ejection fraction ≤28% (below the median)): 16%
- Effect on all-cause mortality (result in words): no effect
- Relative risk reduction, primary composite endpoint (second lowest ejection fraction quartile (EF 23-28%)): 15%
- Incidence of adjudicated stroke (vs placebo, result in words): apparent reduction
- Change of NT-proBNP (week 24, highest EF quartile): 3%
- Reduction of NT-proBNP (week 24, lowest EF quartile (≤22%)): 22%
